Converted amounts (≈) assume the structure as drawn. One block for each molecule: values may come before it.
How the values were obtained:
[1] = tested on: Haemophilus influenzae; test: Minimum inhibition concentration against Haemophilus influenzae strains; format: functional
[2] = tested on: Staphylococcus aureus; test: Minimum inhibition concentration against Staphylococcus aureus strains in presence of 8% calf serum; format: functional
[3] = tested on: Staphylococcus aureus; test: Minimum inhibition concentration against Staphylococcus aureus strains in presence of 2% calf serum; format: functional
[4] = tested on: Staphylococcus aureus; test: Minimum inhibition concentration against Staphylococcus aureus strains in presence of >32% calf serum; format: functional
[5] = tested on: Staphylococcus aureus; test: Minimum inhibition concentration against Staphylococcus aureus strains in presence of 1% calf serum; format: functional
[6] = tested on: Staphylococcus aureus; test: Minimum inhibition concentration against Staphylococcus aureus strains in presence of 16% calf serum; format: functional
[7] = tested on: Staphylococcus aureus; test: Minimum inhibition concentration against Staphylococcus aureus strains in presence of 0.5% calf serum; format: functional
[8] = tested on: Staphylococcus aureus; test: Minimum inhibition concentration against Staphylococcus aureus strains in presence of 0.03% calf serum; format: functional
[9] = tested on: Staphylococcus aureus; test: Minimum inhibition concentration against Staphylococcus aureus strains in presence of 32% calf serum; format: functional; settings: Staphylococcus aureus
[10] = tested on: Staphylococcus aureus; test: Minimum inhibition concentration against Staphylococcus aureus strains in presence of >64% calf serum; format: functional
[11] = Minimum inhibition concentration against Haemophilus influenzae strains; range is 2-8 […]; format: functional
[12] = Maximum serum concentration in mouse was determined; format: ADME, organism-based
[13] = Half life for compound in mouse was determined; format: ADME; settings: in vivo
[14] = Area under curve concentration in mouse was determined; format: ADME; settings: in vivo
[15] = Protective dose against Staphylococcus aureus in mice after 8 days of oral b.i.d. administration at 1 and 5 hr per interval (n=10); format: functional; settings: read-out: PD50
[16] = tested on: Staphylococcus aureus; test: Minimum inhibition concentration against Staphylococcus aureus strains in presence of 4% calf serum; format: functional
[17] = tested on: Mus musculus; test: Protective dose against Staphylococcus aureus in mice after 8 days of oral b.i.d. administration at 1 and 5 h per interval with water as vehicle (n=10); range is 5-6 mg/kg/day; format: functional; settings: read-out: PD50

Structure (SMILES): CC(=O)NCn1cc(-c2ccc(-c3ccc(Oc4ccccc4)cc3)cc2)c(=O)o1
MIC [4]: 64 mg/L
MIC [1]: > 32 mg/L

Structure (SMILES): CC(=O)NCn1cc(-c2ccc(-c3cccc(C(=O)O)c3)cc2)c(=O)o1
MIC [6]: 16 mg/L
MIC [1]: 8 mg/L (≈ 22.7 µM)

Structure (SMILES): COC(=O)c1ccc(-c2ccc(-c3cn(CNC(C)=O)oc3=O)cc2)cc1
MIC [7]: 0.06 mg/L
MIC [1]: > 32 mg/L

Structure (SMILES): COc1cc(-c2ccc(-c3cn(CNC(C)=O)oc3=O)cc2)cc(OC)c1OC
MIC [6]: 4 mg/L
MIC [1]: > 32 mg/L

Structure (SMILES): CSc1ccc(-c2ccc(-c3cn(CNC(C)=O)oc3=O)cc2)cc1
MIC [6]: 0.5 mg/L
MIC [1]: > 32 mg/L

Structure (SMILES): CC(=O)NCn1cc(-c2ccc(-c3ccc(Cl)cc3)cc2)c(=O)o1
MIC [1]: > 32 mg/L
MIC [2]: 0.06 mg/L

Structure (SMILES): CC(=O)NCn1cc(-c2ccc(-c3sccc3CN3CCOCC3)cc2)c(=O)o1
MIC [1]: > 64 mg/L
MIC [10]: 8 mg/L

Structure (SMILES): CC(=O)NCn1cc(-c2ccc(C3CCN(C(C)=O)CC3)cc2)c(=O)o1
MIC [5]: 1 mg/L
MIC [1]: 8 mg/L (≈ 22.4 µM)

Structure (SMILES): CC(=O)NCn1cc(-c2ccc(-c3ccc(C(F)(F)F)cc3)cc2)c(=O)o1
MIC [1]: > 32 mg/L
MIC [2]: 0.25 mg/L

Structure (SMILES): CC(=O)NCn1cc(-c2ccc(-c3ccc(C(=O)O)cc3)cc2)c(=O)o1
Cmax [12]: 1.7 µg/mL
half-life [13]: 8.5 min
MIC [1]: 2 mg/L (≈ 5.68 µM)
MIC [2]: 1 mg/L
AUC [14]: 0.56 µg/h/mL
ED50 [15]: > 50 mg/kg/day

Structure (SMILES): CC(=O)NCn1cc(-c2ccc(-c3ccc(F)cc3)cc2)c(=O)o1
MIC [1]: 2 mg/L (≈ 6.13 µM)
MIC [16]: 0.03 mg/L
ED50 [15]: < 5 mg/kg/day

Structure (SMILES): CC(=O)NCn1cc(-c2ccc(-c3ccoc3)cc2)c(=O)o1
MIC [1]: 4 mg/L (≈ 13.4 µM)
MIC [16]: 0.125 mg/L
ED50 [15]: > 50 mg/kg/day

Structure (SMILES): CC(=O)NCn1cc(-c2ccc(-c3sccc3CO)cc2)c(=O)o1
MIC [1]: 32 mg/L (≈ 92.9 µM)
MIC [16]: 0.25 mg/L

Structure (SMILES): CC(=O)NCn1cc(-c2ccc(C3=CCN(C(C)=O)CC3)cc2)c(=O)o1
Cmax [12]: 2.6 µg/mL
half-life [13]: 6.4 min
MIC [7]: 0.25 mg/L
MIC [1]: 2 mg/L (≈ 5.63 µM)
AUC [14]: 1.5 µg/h/mL
ED50 [15]: 9 mg/kg/day

Structure (SMILES): CC(=O)NC[C@H]1CN(c2ccc(N3CCOCC3)c(F)c2)C(=O)O1 [LINEZOLID]
MIC [3]: 1 mg/L
ED50 [17]: 6 mg/kg/day
MIC [1]: 32 mg/L (≈ 94.9 µM)

Continued, values first:

MIC [1]: 32 mg/L (≈ 94.6 µM)
MIC [2]: 0.5 mg/L
Structure (SMILES): COc1ccccc1-c1ccc(-c2cn(CNC(C)=O)oc2=O)cc1

MIC [3]: 0.06 mg/L
MIC [1]: 4 mg/L (≈ 11.4 µM)
Structure (SMILES): CC(=O)NCn1cc(-c2ccc(-c3ccc(C(C)=O)cc3)cc2)c(=O)o1

MIC [5]: 0.03 mg/L
MIC [1]: > 32 mg/L
Structure (SMILES): CC(=O)NCn1cc(-c2ccc(-c3ccc([N+](=O)[O-])cc3)cc2)c(=O)o1

MIC [1]: 4 mg/L (≈ 12.7 µM)
MIC [8]: 0.03 mg/L
Structure (SMILES): CC(=O)NCn1cc(-c2ccc(-c3ccsc3)cc2)c(=O)o1

MIC [1]: 32 mg/L (≈ 86.4 µM)
MIC [9]: 4 mg/L
Structure (SMILES): CC(=O)NCn1cc(-c2ccc(-c3ccc(C(=O)O)c(F)c3)cc2)c(=O)o1

MIC [1]: > 64 mg/L
MIC [2]: 4 mg/L
Structure (SMILES): CC(=O)NCn1cc(-c2ccc(-c3ncn(C)n3)cc2)c(=O)o1

MIC [6]: 8 mg/L
MIC [1]: > 64 mg/L
Structure (SMILES): CC(=O)NCn1cc(-c2ccc(-c3ccc[nH]3)cc2)c(=O)o1

MIC [3]: 0.25 mg/L
MIC [1]: 8 mg/L (≈ 24.7 µM)
Structure (SMILES): CC(=O)NCn1cc(-c2ccc(-c3ccc(C)nc3)cc2)c(=O)o1

MIC [3]: 0.06 mg/L
MIC [1]: 4 mg/L (≈ 12 µM)
Structure (SMILES): CC(=O)NCn1cc(-c2ccc(-c3ccc(C#N)cc3)cc2)c(=O)o1

MIC [2]: 0.25 mg/L
MIC [11]: 2 mg/L (≈ 6.36 µM)
Structure (SMILES): CC(=O)NCn1cc(-c2ccc(-c3cccs3)cc2)c(=O)o1

MIC [3]: 0.125 mg/L
MIC [1]: 2 mg/L (≈ 6.19 µM)
Structure (SMILES): CC(=O)NCn1cc(-c2ccc(-c3cccc(N)c3)cc2)c(=O)o1

MIC [3]: 1 mg/L
MIC [1]: 32 mg/L (≈ 101 µM)
Structure (SMILES): CC(=O)NCn1cc(-c2ccc(C3CCOCC3)cc2)c(=O)o1

MIC [5]: 0.25 mg/L
MIC [1]: 32 mg/L (≈ 86.9 µM)
Structure (SMILES): COc1ccc(-c2ccc(-c3cn(CNC(C)=O)oc3=O)cc2)cc1OC

MIC [1]: 4 mg/L (≈ 10.5 µM)
MIC [16]: 0.125 mg/L
Structure (SMILES): CC(=O)NCn1cc(-c2ccc(-c3ccc(/C=C/[N+](=O)[O-])cc3)cc2)c(=O)o1
